# Data reported in patent US6713514B1, “PPAR-γ agonists as agents for the treatment of type II diabetes” (Lexicon Pharmaceuticals, Inc., priority 1999, dated 2004).
# Where two headings read alike, the source gives them in different places.
# Legend:
# [1] = tested on: Zucker Obese Rats; test: Blood glucose lowering in diabetic rats; assay type: in vivo, rat; conditions: oral gavage once daily
# Protocol: [The source words this procedure for another organism and reports this organism under the same test.] Male Zucker lean rats, 24-28 weeks of age, are fed high fat chow (AIN-93-M formulation) for two weeks to elevate blood glucose. At blood glucose concentrations over 160 mg/dl, a three day pre-study baseline is established by measuring blood glucose daily (at 0700-0800 hrs) via tail vein blood extraction and measurement using a glucometer. Animals are segregated into groups of 5 based on weights and baseline glucose. Compounds are then administered to the animals at various concentrations (30 mg compound/kg body weight or 10 mg compound/kg body weight). The drugs were suspended in 0.5% carboxymethylcellulose (Sigma) in a total gavage volume of 250 μL. Animals are dosed for seven days, once daily in the morning after blood glucose and weight determination. At the end of the seven-day period, the animals are euthanized by exsanguination after isofluorane anesthesia.
# [2] = target: T1, LBD (ligand binding domain) of the PPAR-γ receptor (Homo sapiens, UniProt P37231); test: Binding to PPAR-γ receptor (inhibition of 3H-PPAR-γ ligand binding to LBD); conditions: 8 nM 3H-PPAR ligand, 210 ng LBD/well, 2 hours
# T1 sequence (P37231 238-503 limits assumed): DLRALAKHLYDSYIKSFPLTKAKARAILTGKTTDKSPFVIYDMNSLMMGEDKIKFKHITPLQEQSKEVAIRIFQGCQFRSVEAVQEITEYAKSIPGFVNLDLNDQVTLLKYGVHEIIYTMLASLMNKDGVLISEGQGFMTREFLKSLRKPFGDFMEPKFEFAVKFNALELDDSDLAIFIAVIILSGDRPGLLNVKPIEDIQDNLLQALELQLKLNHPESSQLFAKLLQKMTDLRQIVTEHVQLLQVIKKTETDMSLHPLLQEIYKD
# Protocol: Binding to PPAR-γ Receptor Compounds are assayed for their ability to inhibit the binding of 3H-PPAR-γ ligand to the LBD (ligand binding domain) of the PPAR-γ receptor. Compounds are tested at 4 concentrations (1 μM to 1 nM) in triplicate. Compounds are incubated with H3-PPAR ligand (8 nM final concentration) and LBD (210 ng/assay well) in assay buffer (50 mM Tris pH8.0. 50 mM KCL, 2 mM EDTA, 0.3% CHAPS, 0.1 mg/ml BSA, 10 mM DTT) for 2 hours with gentle shaking. Non-specific binding is measured in the presence of 10 μM excess cold competitor. Bound ligand is separated using gel filtration plates (Edge Biosystems 31909) and captured on 96 well Wallac MicroBeta plates (1450-5150 by centrifugation for 5 minutes at 2500 rpm. Radioactivity is measured in a Wallac Micro Beta counter. Table 2 gives the IC50 values of compounds 1 and 2.
# [3] = tested on: primary human subcutaneous preadipocytes; test: Human adipocyte differentiation (oil red-O staining); assay type: cell-based; conditions: human adipocyte differentiation in presence of insulin and dexamethasone
# Protocol: Assays are carried out on primary human subcutaneous preadipocytes. Preadipocytes are inoculated at high density in preadipocyte medium (DME/F-10, 1:1, (v/v) containing 10% fetal calf serum) and maintained overnight for attachment. Drug treatment is initiated the second day by changing to serum free medium containing test compounds. The basal medium, which is used as the negative control, contains DME/F-10, biotin (33 μM), pantothenate (17 μM), insulin (100 nM), and dexamethasone (1 μM) and BRL 49653 is included as a positive control. The culture is maintained for 14 days with the compound treatment during the first five days. At the end of the culture, cells are fixed in 5% formalin and stained with oil red-O dye. The dye is extracted by isopropanol and quantitated by measure the optical density at 500 nm. EC50 values found in Table 1 reflect the human adipocyte differentiation of the compound in presence of insulin and dexamethasone.
# [4] = Treatment Day 0 (baseline), 30 or 10 mg/kg (dose not given)
# [5] = 14 day culture, compound first five days, read-out: EC50 Differentiation
# [6] = read-out: EC50 Inhibition of Differentiation
IC50 [2] [µM],"EC50 [3, 5] [µM]","EC50 [3, 6] [µM]",SMILES,"Blood Glucose (mg/dl ± SEM) [1, 4] [mg/dL]",Blood Glucose (mg/dl ± SEM) ([1]; Treatment Day 1) [mg/dL],Blood Glucose (mg/dl ± SEM) ([1]; Treatment Day 2) [mg/dL],Blood Glucose (mg/dl ± SEM) ([1]; Treatment Day 3) [mg/dL],Blood Glucose (mg/dl ± SEM) ([1]; Treatment Day 4) [mg/dL],Blood Glucose (mg/dl ± SEM) ([1]; Treatment Day 5) [mg/dL],Blood Glucose (mg/dl ± SEM) ([1]; Treatment Day 6) [mg/dL],Blood Glucose (mg/dl ± SEM) ([1]; Treatment Day 7) [mg/dL]
1.7,0.15,> 10,"O=C(NCCCc1ccccc1)c1ccc(C[C@H](NCc2ccccc2)C(=O)O)cc1 [Compound 1, (2S)-2-[benzylamino]-3-{4-[N-(3-phenylpropyl)carbamoyl]phenyl}propanoic acid]",133 ± 11,134 ± 11,105 ± 7,105 ± 4,97 ± 16,113 ± 3,105 ± 6,104 ± 8
3.3,0.175,> 10,"CN(C(=O)c1ccc(C[C@H](NCc2ccccc2)C(=O)O)cc1)C1CCCC1Sc1ccccc1 (stereo partly drawn) [Compound 2, (2S)-3-{4-[N-methyl-N(2-phenylthiocyclopentyl)carbamoyl]phenyl}-2-[benzylamino]propanoic acid]",133 ± 11,136 ± 5,104 ± 1,100 ± 9,93 ± 6,100 ± 4,101 ± 5,92 ± 6
,0.1,> 10,"CN(CCOc1ccc(CC2SC(=O)NC2=O)cc1)c1ccccn1 (stereo not drawn) [Rosiglitizone, reference compound]",,,,,,,,
